From US9249096B2, “Pyrrolinone carboxamide compounds useful as endothelial lipase inhibitors” (Bristol-Myers Squibb Company, priority 2011, dated 2016)

What follows are compounds tested against endothelial lipase (EL) (Homo sapiens (Human), UniProt Q9Y5X9) (assay: Endothelial lipase (EL) enzymatic assay with fluorescent substrate A10070 in DMPG vesicles). Conditions: conditioned media from HT-1080 cells overexpressing endogenous EL; 20 min preincubation at 37° C.; read-out: HLE_EL_CRC IC50.
Type: biochemical
Description: Endothelial lipase activity was measured using a fluorescent substrate, A10070, (Invitrogen, CA) doped into an artificial vesicle containing DMPG (Avanti Polar Lipids) as the excipient. Vesicles were prepared by combining 285 uL of 1 mM DMPG in a 1:1 mixture of MeOH and CHCl3 with 15 uL of 1 mM A10070 in a 1:1 mixture of MeOH and CHCl3. The mixture was dried under nitrogen and resuspended in 150 uL of 50 mM HEPES pH 8.0 buffer containing 100 mM NaCl and 0.2 mM EDTA. The sample was allowed to sit at rt for 15 min and then was sonicated 3×4 mins on ice with a Branson Sonicator using duty cycle 1. This preparation provides vesicles with a mole fraction of 0.05 for the FRET substrate.
The enzymatic assay was measured using white, opaque 96-well half area plates. Each well contained 60 uL of assay buffer (50 mM HEPES pH 8.0, 50 mM NaCl and 1 mM CaCl2) and 2 ul of a DMSO solution containing compound of interest. Conditioned media obtained from HT-1080 cells, which were transformed by RAGE technology (Athersys) to overexpress endogenous EL, was added and the reaction was allowed to incubate for 20 min at 37° C. with gentle agitation. The reaction was started by the addition of 20 uL of a 1:4 dilution of vesicles. The final total reaction volume was 100 uL. The reaction rates were measured on a Gemini plate reader with an excitation wavelength of 488 nm and a emission of 530 nm. Readings were taken every 20 seconds for 10 min with agitation between each reading. The slope of the linear portion of the readout was used to calculate the rate of the reaction.
The exemplified examples disclosed in the present invention were tested in the EL assay described above and found having EL inhibitory activity.

Sequence of endothelial lipase (EL) (Q9Y5X9 21-500): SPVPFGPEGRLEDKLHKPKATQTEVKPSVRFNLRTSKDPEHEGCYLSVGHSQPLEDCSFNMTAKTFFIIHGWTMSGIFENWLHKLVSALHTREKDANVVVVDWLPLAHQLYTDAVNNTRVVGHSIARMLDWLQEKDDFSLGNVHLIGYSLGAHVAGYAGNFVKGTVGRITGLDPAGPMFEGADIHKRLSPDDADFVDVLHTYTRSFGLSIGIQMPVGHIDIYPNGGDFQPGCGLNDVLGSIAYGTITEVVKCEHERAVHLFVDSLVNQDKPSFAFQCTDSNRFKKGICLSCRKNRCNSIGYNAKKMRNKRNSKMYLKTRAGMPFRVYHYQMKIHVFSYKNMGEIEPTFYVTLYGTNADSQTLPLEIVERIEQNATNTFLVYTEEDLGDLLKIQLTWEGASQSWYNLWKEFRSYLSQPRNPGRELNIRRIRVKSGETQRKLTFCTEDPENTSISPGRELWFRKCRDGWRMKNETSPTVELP

| Structure (SMILES) | IC50 |
| --- | --- |
| CC(C)OCCN1CC(C(=O)NCCCc2ccc(Cl)c(Cl)c2)=C(O)C1=O [Example 65, N-(3-(3,4-dichlorophenyl)propyl)-4-hydroxy-1-(2-isopropoxyethyl)-5-oxo-2,5-dihydro-1H-pyrrole-3-carboxamide] | 1.6 nM |
| CC(C)CCN1CC(C(=O)NCCCc2ccc(Cl)c(Cl)c2)=C(O)C1=O [Example 45, N-(3-(3,4-dichlorophenyl)propyl)-4-hydroxy-1-isopentyl-5-oxo-2,5-dihydro-1H-pyrrole-3-carboxamide] | 2.71 nM |
| CN1C(=O)C(O)=C(C(=O)NCCCc2ccc(Cl)c(Cl)c2)C1C(C)(C)C (stereo not drawn) [Example 17, 2-tert-butyl-N-(3-(3,4-dichlorophenyl)propyl)-4-hydroxy-1-methyl-5-oxo-2,5-dihydro-1H-pyrrole-3-carboxamide] | 430 nM |
| CCN1CC(C(=O)NCCCc2cccc(OC)n2)=C(O)C1=O [Example 265, 1-ethyl-4-hydroxy-N-(3-(6-methoxypyridin-2-yl)propyl)-5-oxo-2,5-dihydro-1H-pyrrole-3-carboxamide] | 3460 nM |
| CN1CC(C(=O)NC(CCc2ccc(Cl)c(Cl)c2)c2ccccc2)=C(O)C1=O (stereo not drawn) [Example 235, N-(3-(3,4-dichlorophenyl)-1-phenylpropyl)-4-hydroxy-1-methyl-5-oxo-2,5-dihydro-1H-pyrrole-3-carboxamide] | 3060 nM |
| O=C(NCCCc1ccc(Cl)c(Cl)c1)C1=C(O)C(=O)N(CCc2ccc(F)cc2)C1 [Example 64, N-(3-(3,4-dichlorophenyl)propyl)-1-(4-fluorophenethyl)-4-hydroxy-5-oxo-2,5-dihydro-1H-pyrrole-3-carboxamide] | 5.61 nM |
| CN1CC(C(=O)NCCc2ccc(Cl)c(Cl)c2)=C(O)C1=O [Example 1, N-(3,4-dichlorophenethyl)-4-hydroxy-1-methyl-5-oxo-2,5-dihydro-1H-pyrrole-3-carboxamide] | 528 nM |
| CCOCCN1CC(C(=O)NCCCc2ccc(Cl)c(Cl)c2)=C(O)C1=O [Example 57, N-(3-(3,4-dichlorophenyl)propyl)-1-(2-ethoxyethyl)-4-hydroxy-5-oxo-2,5-dihydro-1H-pyrrole-3-carboxamide] | 6.3 nM |
| O=C(NCCCc1ccc(Cl)c(Cl)c1)C1=C(O)C(=O)N(C2CCC2)C1 [Example 39, 1-cyclobutyl-N-(3-(3,4-dichlorophenyl)propyl)-4-hydroxy-5-oxo-2,5-dihydro-1H-pyrrole-3-carboxamide] | 5.09 nM |
| O=C(NCCCc1ccc(Cl)c(Cl)c1)C1=C(O)C(=O)N(Cc2cccc(F)c2)C1 [Example 50, N-(3-(3,4-dichlorophenyl)propyl)-1-(3-fluorobenzyl)-4-hydroxy-5-oxo-2,5-dihydro-1H-pyrrole-3-carboxamide] | 5.99 nM |
| O=C(NCCCc1ccc(Cl)c(Cl)c1)C1=C(O)C(=O)N(Cc2cc(Cl)cc(Cl)c2)C1 [Example 60, 1-(3,5-dichlorobenzyl)-N-(3-(3,4-dichlorophenyl)propyl)-4-hydroxy-5-oxo-2,5-dihydro-1H-pyrrole-3-carboxamide] | 5.64 nM |
| CN1CC(C(=O)NCCCc2c(Cl)cccc2Cl)=C(O)C1=O [Example 208, N-(3-(2,6-dichlorophenyl)propyl)-4-hydroxy-1-methyl-5-oxo-2,5-dihydro-1H-pyrrole-3-carboxamide] | 384 nM |
| CC(C)C(CCc1ccc(Cl)c(Cl)c1)NC(=O)C1=C(O)C(=O)N(C)C1 (stereo not drawn) [Example 230, N-(1-(3,4-dichlorophenyl)-4-methylpentan-3-yl)-4-hydroxy-1-methyl-5-oxo-2,5-dihydro-1H-pyrrole-3-carboxamide] | 9640 nM |
| CCCCN1CC(C(=O)NCCCc2ccc(Cl)c(Cl)c2)=C(O)C1=O [Example 46, 1-butyl-N-(3-(3,4-dichlorophenyl)propyl)-4-hydroxy-5-oxo-2,5-dihydro-1H-pyrrole-3-carboxamide] | 3.25 nM |
| O=C(NCCCc1ccc(Cl)c(Cl)c1)C1=C(O)C(=O)N(CCc2ccccc2)C1 [Example 44, N-(3-(3,4-dichlorophenyl)propyl)-4-hydroxy-5-oxo-1-phenethyl-2,5-dihydro-1H-pyrrole-3-carboxamide] | 3.22 nM |

Continued by falling IC50, values first:

| IC50 | Structure (SMILES) |
| --- | --- |
| 6440 nM | CN1CC(C(=O)NCCCc2ccccc2)=C(O)C1=O [Example 166, 4-hydroxy-1-methyl-5-oxo-N-(3-phenylpropyl)-2,5-dihydro-1H-pyrrole-3-carboxamide] |
| 4550 nM | CC(CCc1ccc(Cl)c(Cl)c1)NC(=O)C1=C(O)C(=O)N(C)C1 (stereo not drawn) [Example 229, N-(4-(3,4-dichlorophenyl)butan-2-yl)-4-hydroxy-1-methyl-5-oxo-2,5-dihydro-1H-pyrrole-3-carboxamide] |
| 2950 nM | CN1CC(C(=O)NCCc2ccccc2)=C(O)C1=O [Example 3, 4-hydroxy-1-methyl-5-oxo-N-phenethyl-2,5-dihydro-1H-pyrrole-3-carboxamide] |
| 584 nM | Cc1ccc(CC2C(C(=O)NCCCc3ccc(Cl)c(Cl)c3)=C(O)C(=O)N2C)cc1 (stereo not drawn) [Example 30, N-(3-(3,4-dichlorophenyl)propyl)-4-hydroxy-1-methyl-2-(4-methylbenzyl)-5-oxo-2,5-dihydro-1H-pyrrole-3-carboxamide] |
| 559 nM | CN1CC(C(=O)NCCc2ccc(Cl)cc2)=C(O)C1=O [Example 5, N-(4-chlorophenethyl)-4-hydroxy-1-methyl-5-oxo-2,5-dihydro-1H-pyrrole-3-carboxamide] |
| 523 nM | CN1C(=O)C(O)=C(C(=O)NCCCc2ccc(Cl)c(Cl)c2)C1CCc1ccccc1 (single isomer, unassigned; isomer a) [Example 195, N-(3-(3,4-dichlorophenyl)propyl)-4-hydroxy-1-methyl-5-oxo-2-phenethyl-2,5-dihydro-1H-pyrrole-3-carboxamide (isomer A)] |
| 5.8 nM | CC(C)(C)CCN1CC(C(=O)NCCCc2ccc(Cl)c(Cl)c2)=C(O)C1=O [Example 55, N-(3-(3,4-dichlorophenyl)propyl)-1-(3,3-dimethylbutyl)-4-hydroxy-5-oxo-2,5-dihydro-1H-pyrrole-3-carboxamide] |
| 5.52 nM | O=C(NCCCc1ccc(Cl)c(Cl)c1)C1=C(O)C(=O)N(Cc2ccc(F)cc2)C1 [Example 51, N-(3-(3,4-dichlorophenyl)propyl)-1-(4-fluorobenzyl)-4-hydroxy-5-oxo-2,5-dihydro-1H-pyrrole-3-carboxamide] |
| 5.24 nM | O=C(NCCCc1ccc(Cl)c(Cl)c1)C1=C(O)C(=O)N(CCc2ccccc2Cl)C1 [Example 53, 1-(2-chlorophenethyl)-N-(3-(3,4-dichlorophenyl)propyl)-4-hydroxy-5-oxo-2,5-dihydro-1H-pyrrole-3-carboxamide] |
| 3.65 nM | O=C(NCCCc1ccc(Cl)c(Cl)c1)C1=C(O)C(=O)N(Cc2ccccc2)C1 [Example 40, 1-benzyl-N-(3-(3,4-dichlorophenyl)propyl)-4-hydroxy-5-oxo-2,5-dihydro-1H-pyrrole-3-carboxamide] |
| 3.3 nM | O=C(NCCCc1ccc(Cl)c(Cl)c1)C1=C(O)C(=O)N(Cc2cccc(Cl)c2)C1 [Example 47, 1-(3-chlorobenzyl)-N-(3-(3,4-dichlorophenyl)propyl)-4-hydroxy-5-oxo-2,5-dihydro-1H-pyrrole-3-carboxamide] |
| 2.93 nM | CC(C)CN1CC(C(=O)NCCCc2ccc(Cl)c(Cl)c2)=C(O)C1=O [Example 42, N-(3-(3,4-dichlorophenyl)propyl)-4-hydroxy-1-isobutyl-5-oxo-2,5-dihydro-1H-pyrrole-3-carboxamide] |
